Reference: US20250129012A1, “ANTI-INFLAMMATORY AND ANALGESIC COMPOUNDS AND USE THEREOF” (JIANGSU ATOM BIOSCIENCE AND PHARMACEUTICAL CO., LTD., priority 2021, published 2025)
Like-named read-outs stand apart in the source and are kept apart here. Marks after values point to notes of the source that are not given here.

Columns and labels:
[1] = tested on: TNF-α; assay: Inflammatory factor experiment B: TNF-α in knee synovial tissue (ELISA); type: in vivo, SD rats; conditions: for inhibition in vivo at 0.6 mg/kg: Rattus norvegicus, po, 48 h, read-out: TNF-α percentage decrease %
[2] = tested on: IL-1β; assay: Inflammatory factor experiment B: IL-1β in knee synovial tissue (ELISA); type: in vivo, SD rats; conditions: for inhibition in vivo at 0.6 mg/kg: Rattus norvegicus, po, 48 h, read-out: IL-1β percentage decrease %
[3] = tested on: IL-6; assay: Inflammatory factor experiment B: IL-6 in knee synovial tissue (ELISA); type: in vivo, SD rats; conditions: Rattus norvegicus, po, 48 h, read-out: IL-6 percentage decrease %
[4] = tested on: gouty arthritis rats (sodium urate, right ankle and knee joint cavities); assay: Pharmacodynamics experiment B on gouty arthritis rats: gait score; type: in vivo, SD rats; conditions: for Gait Score: dose 0.6 mg/kg gavage, mean; for Gait versus model group, in words: compounds 0.6 mg/kg, colchicine 0.6 and 1.2 mg/kg
Method: (§1) Compounds 12, 16, 19, 30, 34, 36, 38, 40, 44, 48, 49, 52, 58, 69, 83, 98, 102, 119, 121, and 122 were prepared by grinding with 0.5% CMC-Na prior to administration and formulated into suspensions of appropriate concentration (0.12 mg/mL) for gavage, with an administered dose of 0.5 mL/100 g.
(§2) 240 SD rats, males, were acclimatized for one week and weighed 180-220 g. […] The dose of each compound group was 0.6 mg/kg. The compounds in each group were prepared into the corresponding concentration suspension, and the volume of administration was 10 mL/kg.
(§3) 250 mg of sodium urate were added to 9 mL of saline, and 1 mL of Tween-80 solution was added, the resulting mixture was heated and stirred to formulate 10 mL of sodium urate solution. The rats were grasped and fixed, and 0.2 mL of sodium urate solution was injected into the right ankle and knee joint cavities respectively to establish gouty arthritis rat model.
(§4) Before modeling, positive drug and tested compounds were pre-administered for 7 days, once a day, and modeling was performed on day 8, and drug administration by gavage continued for 3 days after modeling.
Gait was scored according to the modified gait grading criteria introduced by Coderre et al. The gait of each rat was observed before and 2 h, 4 h, 8 h, 10 h, 24 h and 48 h after modeling and graded scoring was performed. The gait grading criteria were as follows: 0 point, normal walking; 1 point, slight lameness, the lower limbs were slightly bent; 2 points: moderate lameness, the lower limbs just touched the ground; 3 points, severe lameness, the lower limbs left the ground, and walked on three feet. The mean score of each group was calculated and compared with that of the model group.
(§5) Each experimental data was expressed as the mean, and intergroup comparisons were examined for significance using the ANOVA-Dunnett T-test, with P<0.05 as the significance indicator.

[5] = tested on: gouty arthritis rats (sodium urate, right ankle and knee joint cavities); assay: Pharmacodynamics experiment B on gouty arthritis rats: ankle swelling rate; type: in vivo, SD rats; conditions: for change in vivo at 0.6 mg/kg: Rattus norvegicus, po, read-out: Swelling rate (ankle); for Swelling rate (ankle): dose 0.6 mg/kg gavage
Method: as §1, §2, §3, §4
Before modeling and 2 h, 4 h, 8 h, 10 h, 24 h and 48 h after modeling, the circumference of the right ankle joint was measured using a soft ruler or the volume change at the ankle was measured (volumetric method), and the swelling degree and swelling rate of ankle joint were calculated:
Swelling degree (mm)=measured circumference (mm)−baseline circumference (mm)
Swelling rate (%)=swelling degree (mm)/baseline circumference (mm)×100%
as §5

[6] = In vivo pharmacokinetics in SD rats
Method: Compound stock solution preparation: an appropriate amount of solid powder of the compounds were weighed separately, a certain amount of DMSO was added and 20 mg/mL of stock solution was obtained under vortex ultrasound.
Preparation of test compound for gavage: an appropriate amount of compound stock solution was taken by pipette, a certain amount of Solutol HS15 solution was added, the mixture was vortexed for 1 minute, then a certain amount of saline was added, and 1 mg/mL of solution was obtained after mixing well.
Preparation of test compounds for intravenous injection: an appropriate amount of compound stock solution was taken by pipette separately, a certain amount of Solutol HS15 solution was added, the mixture was vortexed for 1 minute, then a certain amount of physiological saline was added and a solution of 0.5 mg/mL was obtained after mixing well.
The animals were fasted overnight before administration by gavage, and food was given 4 hours after administration, during which they were free to drink. Two groups were set for each test compound, intravenous injection group and oral administration group, and the dose and mode of administration were shown in Table 12 below.
The blood samples were centrifuged at 4° C. for 5 min at 2,000 g to separate the plasma. The plasma samples were analyzed by LC/MS/MS to detect the concentration of each test compound in the plasma samples.
The parameters related to the […] were obtained by calculations with WinNonlin® Professional software.

[7] = synovial tissue of knee joints, 48 h after modeling, dose 0.6 mg/kg
[8] = Intravenous injection - 1 mg/kg

COc1cc2c(c(OC)c1OC)-c1ccc(C(=O)N3CCC[C@H]3C#N)c(=O)cc1[C@@H](NC(C)=O)CC2 [Compound 60, N—{(S)-10-[(S)-2-cyanopyrrolidin-1-carbonyl]-1,2,3-trimethoxy-9-oxo-5,6,7,9-tetrahydrobenzo[a]heptalen-7-yl}acetamide]
inhibition in vivo at 0.6 mg/kg [1]: 85.8%
inhibition in vivo at 0.6 mg/kg [2]: 76.1%
inhibition in vivo at 0.6 mg/kg [3]: 59.5%

COc1cc2c(c(OC)c1OC)-c1ccc(S(N)(=O)=O)c(=O)cc1[C@@H](NC(C)=O)CC2 [Compound 69, (S)—N-[1,2,3-trimethoxy-9-oxo-10-aminosulfonyl-5,6,7,9-tetrahydrobenzo[a]heptalen-7-yl]acetamide]
Gait Score ([4]; 2 h): 0
Gait Score ([4]; 4 h): 0
Gait Score ([4]; 8 h): 0*
Gait Score ([4]; 10 h): 0*
Gait Score ([4]; 24 h): 0
Gait Score ([4]; 48 h): 0
Gait versus model group, in words [4]: significant improvement in gait occurred at different time points
change in vivo at 0.6 mg/kg ([5]; 2 h): 5.65%
change in vivo at 0.6 mg/kg ([5]; 4 h): 7.01%
change in vivo at 0.6 mg/kg ([5]; 8 h): 14.7%
change in vivo at 0.6 mg/kg ([5]; 10 h): 26.8%
change in vivo at 0.6 mg/kg ([5]; 24 h): 19%
change in vivo at 0.6 mg/kg ([5]; 48 h): 5.21%
inhibition in vivo at 0.6 mg/kg [1]: 76.1%
inhibition in vivo at 0.6 mg/kg [2]: 110%
inhibition in vivo at 0.6 mg/kg [3]: 83%

CNC(=O)c1cc2c(ccc1=O)-c1c(cc(OC)c(OC)c1OC)CC[C@@H]2NC(C)=O [Compound 49, (S)-7-acetamido-1,2,3-trimethoxy-N-methyl-10-oxo-5,6,7,10-tetrahydrobenzo[a]heptalen-9-carboxamide]
Gait Score ([4]; 2 h): 0
Gait Score ([4]; 4 h): 0
Gait Score ([4]; 8 h): 0*
Gait Score ([4]; 10 h): 0*
Gait Score ([4]; 24 h): 0.2
Gait Score ([4]; 48 h): 0
Gait versus model group, in words [4]: significant improvement in gait occurred at different time points
change in vivo at 0.6 mg/kg ([5]; 2 h): -1.02%
change in vivo at 0.6 mg/kg ([5]; 4 h): 7.38%
change in vivo at 0.6 mg/kg ([5]; 8 h): 8.12%
change in vivo at 0.6 mg/kg ([5]; 10 h): 16.5%
change in vivo at 0.6 mg/kg ([5]; 24 h): 12.9%
change in vivo at 0.6 mg/kg ([5]; 48 h): 1.43%
inhibition in vivo at 0.6 mg/kg [1]: 79.2%
inhibition in vivo at 0.6 mg/kg [2]: 69.1%
inhibition in vivo at 0.6 mg/kg [3]: 78.6%

[2H]C([2H])([2H])Oc1c(OC)cc2c(c1OC)-c1ccc(C(=O)NC)c(=O)cc1[C@@H](NC(C)=O)CC2 [Compound 122, (S)-7-acetamido-1,3-dimethoxy-2-trideutero-methoxy-N-methyl-9-oxo-5,6,7,9-tetrahydrobenzo[a]heptalen-10-carboxamide]
Gait Score ([4]; 0 h): 0
Gait Score ([4]; 2 h): 0
Gait Score ([4]; 4 h): 0.2
Gait Score ([4]; 8 h): 0.1
Gait Score ([4]; 10 h): 0.2
Gait Score ([4]; 24 h): 0.1
Gait Score ([4]; 48 h): 0
Swelling rate (ankle) ([5]; 2 h): 7.9%**
Swelling rate (ankle) ([5]; 4 h): 12.1%**
Swelling rate (ankle) ([5]; 8 h): 15.8%**
Swelling rate (ankle) ([5]; 10 h): 15.3%**
Swelling rate (ankle) ([5]; 24 h): 12.5%**
Swelling rate (ankle) ([5]; 48 h): 4.7%**
TNF-α percentage decrease % [1, 7]: 98.89%
IL-1β percentage decrease % [2, 7]: 86.87%
AUCINF ([6]; Gavage - 10 mg/kg): 3129 ng·h/mL
Cmax ([6]; Gavage - 10 mg/kg): 1153 ng/mL
MRTINF ([6]; Gavage - 10 mg/kg): 2.47 h
Tmax ([6]; Gavage - 10 mg/kg): 0.250 h
t1/2 ([6]; Gavage - 10 mg/kg): 1.79 h
F ([6]; Gavage - 10 mg/kg, calculated by AUCINF): 50.1%
AUCINF [6, 8]: 624 ng·h/mL
CL [6, 8]: 27.2 mL/min/kg
MRTINF [6, 8]: 1.34 h
VSS [6, 8]: 1.99 L/kg
t1/2 [6, 8]: 1.57 h

COc1cc2c(c(OC)c1OC)-c1ccc(-n3cnnn3)c(=O)cc1[C@@H](NC(C)=O)CC2 [Compound 95, (S)—N-{1,2,3-trimethoxy-9-oxo-10-(1H-tetrazol-1-yl)-5,6,7,9-tetrahydrobenzo[a]heptalen-7-yl}acetamide]
inhibition in vivo at 0.6 mg/kg [1]: 70%
inhibition in vivo at 0.6 mg/kg [2]: 40.4%
inhibition in vivo at 0.6 mg/kg [3]: 109%

COC(=O)c1ccc2c(cc1=O)[C@@H](N1CCCCC1=O)CCc1cc(OC)c(OC)c(OC)c1-2 [Compound 108, methyl (S)-1,2,3-trimethoxy-9-oxo-7-(2-oxopiperidin-1-yl)-5,6,7,9-tetrahydrobenzo[a]heptalen-10-carboxylate]
inhibition in vivo at 0.6 mg/kg [1]: 104%
inhibition in vivo at 0.6 mg/kg [2]: 92.7%
inhibition in vivo at 0.6 mg/kg [3]: 207%

COc1cc2c(c(OC)c1OC)-c1ccc(-n3ccnn3)c(=O)cc1[C@@H](NC(C)=O)CC2 [Compound 99, (S)—N-(1,2,3-trimethoxy-9-oxo-10-(1H-1,2,3-triazol-1-yl)-5,6,7,9-tetrahydrobenzo[a]heptalen-7-yl)acetamide]
inhibition in vivo at 0.6 mg/kg [1]: 91.7%
inhibition in vivo at 0.6 mg/kg [2]: 66.4%
inhibition in vivo at 0.6 mg/kg [3]: 79.6%

COc1cc2c(c(OC)c1OC)-c1ccc(-n3nccn3)c(=O)cc1[C@@H](NC(C)=O)CC2 [Compound 100, (S)—N-(1,2,3-trimethoxy-9-oxo-10-(2H-1,2,3-triazol-2-yl)-5,6,7,9-tetrahydrobenzo[a]heptalen-7-yl)acetamide]
inhibition in vivo at 0.6 mg/kg [1]: 120%
inhibition in vivo at 0.6 mg/kg [2]: 65.2%
inhibition in vivo at 0.6 mg/kg [3]: 169%

COc1cc2c(c(OC)c1OC)-c1ccc(C(=O)N3CCCC3)c(=O)cc1[C@@H](NC(C)=O)CC2 [Compound 61, (S)—N-{1,2,3-trimethoxy-9-oxo-10-(pyrrolidin-1-carbonyl)-5,6,7,9-tetrahydrobenzo[a]heptalen-7-yl}acetamide]
inhibition in vivo at 0.6 mg/kg [1]: 71.2%
inhibition in vivo at 0.6 mg/kg [2]: 97.2%
inhibition in vivo at 0.6 mg/kg [3]: 52.5%

CCNS(=O)(=O)N[C@H]1CCc2cc(OC)c(OC)c(OC)c2-c2ccc(C(=O)OC)c(=O)cc21 [Compound 112]
inhibition in vivo at 0.6 mg/kg [1]: 97.8%
inhibition in vivo at 0.6 mg/kg [2]: 92%
inhibition in vivo at 0.6 mg/kg [3]: 165%

CNC(=O)N[C@H]1CCc2cc(OC)c(OC)c(OC)c2-c2ccc(C(=O)NC)c(=O)cc21 [Compound 81, (S)-1,2,3-trimethoxy-N-methyl-7-(3-methylureido)-9-oxo-5,6,7,9-tetrahydrobenzo[a]heptalen-10-carboxamide]
inhibition in vivo at 0.6 mg/kg [1]: 78%
inhibition in vivo at 0.6 mg/kg [2]: 86.6%
inhibition in vivo at 0.6 mg/kg [3]: 70.6%

COc1cc2c(c(OC)c1OC)-c1ccc(-n3ccnc3)c(=O)cc1[C@@H](NC(C)=O)CC2 [Compound 97, (S)—N-{10-(1H-imidazol-1-yl)-1,2,3-trimethoxy-9-oxo-5,6,7,9-tetrahydrobenzo[a]heptalen-7-yl}acetamide]
inhibition in vivo at 0.6 mg/kg [1]: 92%
inhibition in vivo at 0.6 mg/kg [2]: 20.2%
inhibition in vivo at 0.6 mg/kg [3]: 97.8%
